Experimental data reported in publication PMC11542830, “3-nitropyridine analogues as novel microtubule-targeting agents” (PLOS ONE, 2024).
Read-outs that look alike come from different tables or passages of the source.

Experiments:
K-562 = assay: NCI60 5-dose screen, K-562; format: cell-based; settings: Homo sapiens, K562; leukemia; Fig 1D; read-out: Log10 GI50 (K-562) (converted)
Procedure: (§1) The screening methodology used in the NCI60 Cell 5-Doses screen is described in detail at https://dtp.cancer.gov/discovery_development/nci-60/methodology.htm. Briefly, cells are seeded in 96 well plates at an appropriate density and incubated for 1 day. After 1 day, some of the plates are processed to determine a time zero density. To the remaining plates, compounds are added over a 5-log M concentration range (1 log dilutions from 10^-4M to 10^-8M). Plates are incubated for two additional days, then fixed and stained with sulforhodamine B. Growth inhibition is calculated relative to cells without drug treatment and the time zero control. The GI50 is the concentration of a compound that causes 50% growth inhibition, relative to the no drug control.

HCT-116 cells = assay: 3-day MTS cell viability assay, HCT-116; format: cell-based; settings: Homo sapiens, 72 hours, Fig 1C
Procedure: (§2) All cancer cell lines (HT-29: colorectal adenocarcinoma, HCT-116: colorectal carcinoma, A549: lung epithelial carcinoma, PC3: prostate adenocarcinoma, Jurkat: acute T-cell leukemia, BC-1: primary effusion lymphoma) and the normal human embryonal lung fibroblast cell line MRC-5 were acquired from the American Type Culture Collection (ATCC). All cell lines were cultured as recommended by the suppliers. Culture media were purchased from Gibco (Thermo Fisher Scientific) and supplemented with 10 to 20% fetal bovine serum (HyClone, GE Healthcare Life Sciences) and 20–25 μg/mL gentamicin (Gibco, Thermo Fisher Scientific). […]
(§3) Cell viability in cancer cell lines treated with compound was measured in a 3-day MTS cell proliferation assay using the CellTiter 96 AQueous Non-Radioactive Cell Proliferation Assay reagent (Promega) according to the manufacturer’s instructions. Absorbance was read at 490 nm on a SaFire II microplate reader (Tecan). CC50 values were calculated by fitting the obtained MTS cell viability data in GraphPad Prism using a 4-parameter log–based fit for inhibitors. Apoptosis induction and cell death upon compound treatment in PBMC was measured using the Alexa Fluor 488 Annexin V/Dead Cell Apoptosis Kit (Thermo Fisher Scientific), with readout on a FACSCanto II flow cytometer (BD Biosciences). […] The compounds were evaluated in duplo in two independent experiments.

MCF7 = assay: NCI60 5-dose screen, MCF7; format: cell-based; settings: Homo sapiens, breast cancer, Fig 1D, read-out: Log10 GI50 (MCF7) (converted)
Procedure: as §1

NCI-H322M = assay: NCI60 5-dose screen, NCI-H322M; format: cell-based; settings: Homo sapiens, non-small cell lung cancer, Fig 1D, read-out: Log10 GI50 (NCI-H322M) (converted)
Procedure: as §1

SR = assay: NCI60 5-dose screen, SR; format: cell-based; settings: Homo sapiens, leukemia, Fig 1D, read-out: Log10 GI50 (SR) (converted)
Procedure: as §1

A549 cells = assay: 3-day MTS cell viability assay, A549; format: cell-based; settings: Homo sapiens, 72 hours, Fig 1C
Procedure: as §2, §3

SW-620 = assay: NCI60 5-dose screen, SW-620; format: cell-based; settings: Homo sapiens, colon cancer, Fig 1D, read-out: Log10 GI50 (SW-620) (converted)
Procedure: as §1

A549/ATCC = assay: NCI60 5-dose screen, A549/ATCC; format: cell-based; settings: Homo sapiens, non-small cell lung cancer, Fig 1D, read-out: Log10 GI50 (A549/ATCC) (converted)
Procedure: as §1

SF-539 = assay: NCI60 5-dose screen, SF-539; format: cell-based; settings: Homo sapiens, CNS cancer, Fig 1D, read-out: Log10 GI50 (SF-539) (converted)
Procedure: as §1

primary cortical neurons = assay: Neurite outgrowth assay; format: cell-based, Sprague-Dawley rat; settings: Primary cortical neuron, rat primary cortical neurons, 72 hours
Procedure: Neurite outgrowth assay was performed by Fluofarma (Pessac, France). Primary cortical neurons were harvested from E19 Sprague-Dawley (Janvier Labs) rat embryos, dissociated and plated at 10,000 per well in a tissue-culture treated 96 well plate, in neuronal medium (SM2 matrix independent growth medium, Stem Cell Technologies). Neurons were followed by phase contrast imaging with 1 image acquired every 4 hours, using an Incucyte Zoom (Essen BioScience) with a 20x objective. Four fields per well were acquired. After 24 hours, cells were treated with test compounds and neurite outgrowth was followed for 72 hours post-treatment. All measures were performed in triplicate in one experiment.
Neurite outgrowth kinetics were analyzed from each phase contrast image using the Neurotrack module of the Incucyte Zoom platform. Neurite length and branch points were obtained for each time point. The area under the curve (AUC) was calculated in each experimental condition (GraphPad Prism 6, GraphPad Software).

SNB-75 = assay: NCI60 5-dose screen, SNB-75; format: cell-based; settings: Homo sapiens, CNS cancer, Fig 1D, read-out: Log10 GI50 (SNB-75) (converted)
Procedure: as §1

[1] = test system: microtubule network in A549 cells; assay: Immunofluorescence staining of alpha-tubulin in A549 cells; format: cell-based, human; settings: 4 hours, 250 nM
Procedure: Non-small cell lung carcinoma A549 cells were seeded at 50,000 cells/well in an 8-well Nunc™ Lab-Tek™ chambered coverglass slide. After overnight incubation, they were treated with compound or carrier (DMSO) for 4 hours and then fixed with 4% PFA, washed and permeabilized (0.2% Triton X-100 in PBS). Further treatment was performed according to standard immunofluorescence procedures, employing 10% normal goat serum (Thermo Fisher Scientific) as blocking medium and as antibody diluent. Employed antibodies were mouse anti-alpha tubulin (sc-5286, Santa Cruz Biotechnology) at 1:300 dilution and secondary goat anti-mouse IgG conjugated to Alexa Fluor® 488 (A11001, Invitrogen, Thermo Fisher Scientific). Cell nuclei were counterstained with DAPI. Images were collected with a Leica TCS SP5 confocal microscope employing a HCX PL APO 63x (NA 1.2) water immersion objective.

SK-OV-3 = assay: NCI60 5-dose screen, SK-OV-3; format: cell-based; settings: Homo sapiens, ovarian cancer, Fig 1D, read-out: Log10 GI50 (SK-OV-3) (converted)
Procedure: as §1

BC-1 cells = assay: 3-day MTS cell viability assay, BC-1; format: cell-based; settings: Homo sapiens, BC1, 72 hours, Fig 1C
Procedure: as §2, §3

[2] = read-out: IC50 for branch point formation
[3] = read-out: IC50 for neurite length

| SMILES | GI50 (K-562) | IC50 (HCT-116 cells) | GI50 (MCF7) | GI50 (NCI-H322M) | GI50 (SR) | IC50 (A549 cells) | GI50 (SW-620) | GI50 (A549/ATCC) | GI50 (SF-539) | IC50 (primary cortical neurons; [2]) | IC50 (primary cortical neurons; [3]) | GI50 (SNB-75) | effect on microtubule network [1] | GI50 (SK-OV-3) | IC50 (BC-1 cells) |
| --- | --- | --- | --- | --- | --- | --- | --- | --- | --- | --- | --- | --- | --- | --- | --- |
| Cc1cc(C)cc(Nc2ccc([N+](=O)[O-])c(NCCN3CCOCC3)n2)c1 [Compound 4AZA2891, 6-(3,5-dimethylanilino)-2-(2-morpholinoethylamino)-3-nitropyridine] | 11.5 nM | 17.4 nM | < 10 nM | 81.3 nM | 17.4 nM | 20.3 nM | 14.8 nM | 20 nM | < 10 nM | 8 nM | 10 nM | < 10 nM | disintegrate the microtubule network | 58.9 nM | 8.5 nM |
| Cc1ccnc(Nc2ccc([N+](=O)[O-])c(NCCN3CCOCC3)n2)c1 [Compound 4AZA2996, N^6-(4-methylpyridin-2-yl)-N^2-(2-morpholinoethyl)-3-nitropyridine-2,6-diamine] | < 10 nM | 10 nM | < 10 nM | 46.8 nM | < 10 nM | 12 nM | < 10 nM | < 10 nM | < 10 nM | 7.4 nM | 9.5 nM | < 10 nM | disintegrate the microtubule network | < 10 nM | 5.9 nM |
